Source: US20240122876A1, “COMPOSITIONS AND METHODS FOR THE TREATMENT OF OCULAR DISORDERS” (Case Western Reserve University, priority 2021, published 2024)
Values joined by “and” are separate entries in the source; they are usually repeats but may differ in a detail not shown here. Identical values can stand only once. “Also recorded” adds a separate entry of the source.

Assays:
[1] = molecular target: RPE65 (Bos taurus (Bovine), UniProt Q28175); assay: RPE65 retinoid isomerase activity assay (11-cis-retinol production by bovine RPE microsomes); assay type: biochemical; conditions: for IC50: inhibition of RPE65-mediated isomerization, decline in 11-cis-retinol production, bovine RPE microsomes
RPE65, sequence (Q28175 whole entry): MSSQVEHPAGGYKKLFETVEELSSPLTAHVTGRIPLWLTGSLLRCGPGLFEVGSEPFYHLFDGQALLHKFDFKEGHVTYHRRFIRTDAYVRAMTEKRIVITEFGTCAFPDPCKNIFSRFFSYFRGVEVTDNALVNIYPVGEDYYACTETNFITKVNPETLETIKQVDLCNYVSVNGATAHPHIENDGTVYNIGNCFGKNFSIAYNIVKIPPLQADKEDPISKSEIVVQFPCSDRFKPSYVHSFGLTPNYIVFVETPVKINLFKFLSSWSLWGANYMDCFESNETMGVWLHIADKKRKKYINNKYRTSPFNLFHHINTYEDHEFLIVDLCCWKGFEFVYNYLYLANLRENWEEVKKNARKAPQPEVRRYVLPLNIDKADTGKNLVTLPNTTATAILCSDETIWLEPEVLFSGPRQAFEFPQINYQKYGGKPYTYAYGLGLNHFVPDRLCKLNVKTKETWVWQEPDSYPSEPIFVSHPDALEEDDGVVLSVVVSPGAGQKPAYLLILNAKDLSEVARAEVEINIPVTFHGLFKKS
Method: After incubation at room temperature for 5 min, the resulting mixture was mixed with half microliter of all-trans-retinol (5 mM) in DMF, and then incubated at 37° C. for 1 h. The reaction was quenched by adding 400 μL of methanol (Fisher Chemical, Fair Lawn, NJ), and the products were extracted with 400 μL of hexanes.

[2] = Quantification of primary amine compound levels in serum and eyes of mice after intraperitoneal treatment (LC-MS/MS); assay type: in vivo; conditions: mouse, 380 nmol i.p.; for initial plasma (serum) level: 3 h
Method: Eight weeks old BL/6J mice were treated with 380 nmol visual cycle modulator 24, 49, 57, 58, 59 or emixustat in DMSO (50 μL) by intraperitoneal injection, and sacrificed at 3 h, 1 day, or 7 days later. Blood and eyeball samples were collected immediately. After clotting at room temperature for 30 min, the blood samples were centrifuged for 10 minutes at 17,000 g in a temperature-controlled benchtop centrifuge (Eppendorf AG). Each serum sample (100 μL) was carefully removed to avoid disturbing loose clots, precipitated with […] of pre-cooled methanol, and centrifuged at 17,000 g for 15 min at 4° C. The supernatant was carefully transferred to a SpinX centrifuge tube filter with a 0.45 μm cellulose acetate membrane (Costar, Salt Lake City, UT), and centrifuged at 7,000 g for 2 min. Filtered samples were dried under vacuum, reconstituted in 100 μL 50% methanol/water, and centrifuged at 17,000 g for 15 min at 4° C. The resulting supernatants were ready for Liquid Chromatography/Mass Spectrometry analyses. The two eyeballs from each mouse were homogenized in acetonitrile (2×800 μL). The resulting mixture was centrifuged at 17,000 g for 15 min at 4° C. The supernatant was dried under vacuum, reconstituted in 100 μl 50% methanol/water, and centrifuged at 17,000 g for 15 min at 4° C. Twenty microliters of the supernatant extracted from serum or eye samples was injected into an Ultimate 3000 HPLC system coupled with LXQ mass spectrometer (ThermoFisher Scientific, Waltham, MA) with an electrospray ionization unit.

[3] = RPE65 inhibition, ratio of IC50

Compound | IC50 [1] | also measured
CCCC(CCC)COc1cc(F)cc(C(O)CCN)c1 (racemic) [Compound 25, (S/R)-3-amino-1-(3-fluoro-5-((2-propylpentyl)oxy)phenyl)propan-1-ol] | 295 ± 132 nM | –
CCCC(CCC)COc1cc(F)cc(C(O)CCN)c1 (racemic) [Compound 26, (S/R)-3-amino-1-(3-fluoro-5-((2-propylpentyl)oxy)phenyl)propan-1-ol] | 184 ± 24 nM | –
CCCC(CCC)COc1ccc(F)c(C(O)CCN)c1 (racemic) [Compound 27, (S/R)-3-amino-1-(2-fluoro-5-((2-propylpentyl)oxy)phenyl)propan-1-ol] | 157 ± 24 nM | –
CCCC(CCC)COc1ccc(F)c(C(O)CCN)c1 (racemic) [Compound 28, (S/R)-3-amino-1-(2-fluoro-5-((2-propylpentyl)oxy)phenyl)propan-1-ol] | 132 ± 19 nM | –
CCCC(CCC)COc1cccc(C(O)CCN)c1F (racemic) [Compound 29, (S/R)-3-amino-1-(2-fluoro-3-((2-propylpentyl)oxy)phenyl)propan-1-ol] | 287 ± 283 nM | –
CCCC(CCC)COc1cccc(C(O)CCN)c1F (racemic) [Compound 30, (S/R)-3-amino-1-(2-fluoro-3-((2-propylpentyl)oxy)phenyl)propan-1-ol] | 274 ± 47 nM | –
CC1=C(COc2cccc([C@H](O)CCN)c2)C(C)(C)CCC1 [(R)-MB-001, reference compound] | 323 ± 145 nM | –
CCCC(CCC)COc1cccc([C@H](O)CCN)c1 [(R)-MB-004, reference compound] | 106 ± 16 nM | –
CCCC(CCC)COc1cc([C@@H](O)CCN)ccc1F [Compound 23, (S)-3-Amino-1-(4-fluoro-3-((2-propylpentyl)oxy)phenyl)propan-1-ol] | 177 ± 11 nM | –
CCCC(CCC)COc1cc([C@H](O)CCN)ccc1F [Compound 24, (R)-3-Amino-1-(4-fluoro-3-((2-propylpentyl)oxy)phenyl)propan-1-ol] | 50 ± 9 nM | inhibitory potency / IC50 relative to (R)-MB-004 [1, 3]: twice; also recorded: approximately two-fold lower; inhibitory potency relative to racemic emixustat [1, 3]: 3 times; distribution within ocular tissue [2]: poorest distribution within ocular tissue; plasma half-life [2]: longer plasma half-life; initial plasma (serum) level [2]: highest initial plasma levels
NCCC(O)c1ccc(F)c(OCC2CCCCC2)c1 (stereo not shown) [Compound 49, 3-amino-1-(3-(cyclohexylmethoxy)-4-fluorophenyl)propan-1-ol] | 95 ± 5 nM | distribution within ocular tissue [2]: poorest distribution within ocular tissue; initial plasma (serum) level [2]: highest initial plasma levels
NCCC(O)c1cc(F)cc(OCC2CCCCC2)c1 (stereo not shown) [Compound 50, 3-amino-1-(3-(cyclohexylmethoxy)-5-fluorophenyl)propan-1-ol] | 201 ± 23 nM | –
NCCC(O)c1cc(OCC2CCCCC2)ccc1F (stereo not shown) [Compound 51, 3-amino-1-(5-(cyclohexylmethoxy)-2-fluorophenyl)propan-1-ol] | 145 ± 9 nM | –
NCCC(O)c1cccc(OCC2CCCCC2)c1F (stereo not shown) [Compound 52, 3-amino-1-(3-(cyclohexylmethoxy)-2-fluorophenyl)propan-1-ol] | 358 ± 42 nM | –
CC1=C(COc2cc(C(O)CCN)ccc2F)C(C)(C)CCC1 (stereo not shown) [Compound 53, 3-amino-1-(4-fluoro-3-((2,6,6-trimethylcyclohex-1-en-1-yl)methoxy)phenyl)propan-1-ol] | 284 ± 20 nM | –
CC1=C(COc2cc(F)cc(C(O)CCN)c2)C(C)(C)CCC1 (stereo not shown) [Compound 54, 3-amino-1-(3-fluoro-5-((2,6,6-trimethylcyclohex-1-en-1-yl)methoxy)phenyl)propan-1-ol] | 292 ± 89 nM | –
CC1=C(COc2ccc(F)c(C(O)CCN)c2)C(C)(C)CCC1 (stereo not shown) [Compound 55, 3-amino-1-(2-fluoro-5-((2,6,6-trimethylcyclohex-1-en-1-yl)methoxy)phenyl)propan-1-ol] | 124 ± 21 nM | –
CC1=C(COc2cccc(C(O)CCN)c2F)C(C)(C)CCC1 (stereo not shown) [Compound 56, 3-amino-1-(2-fluoro-3-((2,6,6-trimethylcyclohex-1-en-1-yl)methoxy)phenyl)propan-1-ol] | 169 ± 13 nM | –
NCCC(O)c1cccc(OCC2CCC(F)(F)CC2)c1 (stereo not shown) [Compound 57, 3-amino-1-(3-((4,4-difluorocyclohexyl)methoxy)phenyl) propan-1-ol] | 100 nM and 103 nM | distribution within ocular tissue [2]: further enhanced ocular distribution
[2H]C([2H])(N)CC(O)c1cccc(OCC2CCC(F)(F)CC2)c1 (stereo not shown) [Compound 59, 3-amino-1-(3-((4,4-difluorocyclohexyl)methoxy)phenyl)propan-3,3-d2-1-ol] | 269 ± 40 nM | –
